Measured values taken from ChEMBL document CHEMBL3352326, “Synthesis of 2,3-di- and 2,2,3-trisubstituted-3-methoxycarbonyl-γ-butyrolactones as potent antitumor agents” (Eur J Med Chem, 2015).
Active and inactive are the calls of the source. The calls are words filed in the database; no cut-off is given here.

Legend:
MCF7 = experiment: Growth inhibition of human MCF7 cells at 10 uM after 72 hrs by MTS assay; format: functional; details: MCF7, 72 h, read-out: GI
HL-60 [1] = experiment: Induction of apoptosis in human HL60 cells assessed as dead cells level at 5 uM annexin V-PE and 7-AAD staining based by flow cytometry (reference value: 0.4%); format: functional
HL-60 [2] = experiment: Induction of apoptosis in human HL60 cells assessed as intact cells level at 10 uM annexin V-PE and 7-AAD staining based by flow cytometry (reference value: 80.7%); format: functional
HL-60 [3] = experiment: Induction of necrosis in human HL60 cells assessed as total LDH activity at 2 to 10 uM; format: functional, cell-based
HL-60 [4] = experiment: Induction of apoptosis in human HL60 cells assessed as late apoptosis cells level at 10 uM annexin V-PE and 7-AAD staining based by flow cytometry (reference value: 0.4%); format: functional
HL-60 [5] = experiment: Induction of apoptosis in human HL60 cells assessed as late apoptosis cells level at 2 uM annexin V-PE and 7-AAD staining based by flow cytometry (reference value: 0.4%); format: functional
HL-60 [6] = experiment: Induction of cell cycle arrest in human HL60 cells assessed as accumulation at G2/M phase at 10 uM after 48 hrs by propidium iodide staining based flow cytometry (reference value: 11.6%); format: functional
KB = experiment: Growth inhibition of human KB cells at 10 uM after 72 hrs by MTS assay; format: functional; details: read-out: GI
HL-60 [7] = experiment: Induction of cell cycle arrest in human HL60 cells assessed as accumulation at G0/G1 phase at 2 uM after 48 hrs by propidium iodide staining based flow cytometry (reference value: 42.9%); format: functional
HL-60 [8] = experiment: Induction of apoptosis in human HL60 cells assessed as early apoptotic cells level at 5 uM annexin V-PE and 7-AAD staining based by flow cytometry (reference value: 18.5%); format: functional
HL-60 [9] = experiment: Induction of cell cycle arrest in human HL60 cells assessed as accumulation at S phase at 5 uM after 48 hrs by propidium iodide staining based flow cytometry (reference value: 45%); format: functional
HL-60 [10] = experiment: Induction of apoptosis in human HL60 cells assessed as dead cells level at 2 uM annexin V-PE and 7-AAD staining based by flow cytometry (reference value: 0.4%); format: functional
HL-60 [11] = experiment: Induction of apoptosis in human HL60 cells assessed as early apoptotic cells level at 2 uM annexin V-PE and 7-AAD staining based by flow cytometry (reference value: 18.5%); format: functional
HL-60 [12] = experiment: Induction of apoptosis in human HL60 cells assessed as late apoptosis cells level at 5 uM annexin V-PE and 7-AAD staining based by flow cytometry (reference value: 0.4%); format: functional
HL-60 [13] = experiment: Induction of cell cycle arrest in human HL60 cells assessed as accumulation at subG1 phase at 2 uM after 48 hrs by propidium iodide staining based flow cytometry (reference value: 0.5%); format: functional
[14] = Growth inhibition of drug resistant human HL60 cells at 10 uM after 72 hrs by MTS assay; format: functional; details: HL-60, 72 h, read-out: GI
[15] = Growth inhibition of human HCT116 cells at 10 uM after 72 hrs by MTS assay; format: functional; details: HCT-116, 72 h, read-out: GI
SK-OV-3 = experiment: Growth inhibition of human SKOV3 cells at 10 uM after 72 hrs by MTS assay; format: functional; details: SK-OV-3, 72 h, read-out: GI
HL-60 [16] = experiment: Induction of apoptosis in human HL60 cells assessed as caspase-3 activation at 5 uM after 24 to 48 hrs by DEVD-AMC substrate based fluorescence assay; format: functional, cell-based
HL-60 [17] = experiment: Induction of cell cycle arrest in human HL60 cells assessed as accumulation at S phase at 2 uM after 48 hrs by propidium iodide staining based flow cytometry (reference value: 45%); format: functional
HL-60 [18] = experiment: Induction of cell cycle arrest in human HL60 cells assessed as accumulation at G2/M phase at 5 uM after 48 hrs by propidium iodide staining based flow cytometry (reference value: 11.6%); format: functional
HL-60 [19] = experiment: Induction of apoptosis in human HL60 cells assessed as early apoptotic cells level at 10 uM annexin V-PE and 7-AAD staining based by flow cytometry (reference value: 18.5%); format: functional
[20] = Growth inhibition of human HL60 cells at 10 uM after 72 hrs by MTS assay; format: functional; details: HL-60, 72 h, read-out: GI
HL-60 [21] = experiment: Induction of cell cycle arrest in human HL60 cells assessed as accumulation at subG1 phase at 10 uM after 48 hrs by propidium iodide staining based flow cytometry (reference value: 0.5%); format: functional
HL-60 [22] = experiment: Induction of cell cycle arrest in human HL60 cells assessed as accumulation at S phase at 10 uM after 48 hrs by propidium iodide staining based flow cytometry (reference value: 45%); format: functional
HL-60 [23] = experiment: Induction of cell cycle arrest in human HL60 cells assessed as accumulation at G2/M phase at 2 uM after 48 hrs by propidium iodide staining based flow cytometry (reference value: 11.6%); format: functional
HL-60 [24] = experiment: Induction of apoptosis in human HL60 cells assessed as intact cells level at 5 uM annexin V-PE and 7-AAD staining based by flow cytometry (reference value: 80.7%); format: functional
HL-60 [25] = experiment: Induction of cell cycle arrest in human HL60 cells assessed as accumulation at G0/G1 phase at 5 uM after 48 hrs by propidium iodide staining based flow cytometry (reference value: 42.9%); format: functional
HL-60 [26] = experiment: Induction of apoptosis in human HL60 cells assessed as intact cells level at 2 uM annexin V-PE and 7-AAD staining based by flow cytometry (reference value: 80.7%); format: functional
HL-60 [27] = experiment: Induction of apoptosis in human HL60 cells assessed as dead cells level at 10 uM annexin V-PE and 7-AAD staining based by flow cytometry (reference value: 0.4%); format: functional
[28] = Growth inhibition of human MCF7/R cells at 10 uM after 72 hrs by MTS assay; format: functional; details: MCF7R, read-out: GI
[29] = Growth inhibition of human PC3 cells at 10 uM after 72 hrs by MTS assay; format: functional; details: PC-3, 72 h, read-out: GI
HL-60 [30] = experiment: Induction of cell cycle arrest in human HL60 cells assessed as accumulation at subG1 phase at 5 uM after 48 hrs by propidium iodide staining based flow cytometry (reference value: 0.5%); format: functional
HL-60 [31] = experiment: Induction of cell cycle arrest in human HL60 cells assessed as accumulation at G0/G1 phase at 10 uM after 48 hrs by propidium iodide staining based flow cytometry (reference value: 42.9%); format: functional
HL-60 [32] = experiment: Induction of necrosis in intact human HL60 cells assessed as cytosolic LDH release at 2 to 10 uM; format: functional, cell-based

COC(=O)C1(Cc2ccc(OC)cc2)CC(=O)OC1(C)c1ccccc1 (stereo not given)
inhibition of growth at 10 µM (MCF7): 56% | Activity (HL-60 [1]): 0.9% | Activity (HL-60 [2]): 40.7% | Activity (HL-60 [3]): Active | Activity (HL-60 [4]): 4.25% | Activity (HL-60 [5]): 0.65% | Activity (HL-60 [6]): 13.1% | inhibition of growth at 10 µM (KB): 95% | Activity (HL-60 [7]): 36.3% | Activity (HL-60 [8]): 46.4% | Activity (HL-60 [9]): 25.6% | Activity (HL-60 [10]): 0.35% | Activity (HL-60 [11]): 37.65% | Activity (HL-60 [12]): 2.2% | Activity (HL-60 [13]): 14.1% | inhibition of growth at 10 µM [14]: 92% | inhibition of growth at 10 µM [15]: 61% | inhibition of growth at 10 µM (SK-OV-3): 76% | Activity (HL-60 [16]): Active | Activity (HL-60 [17]): 24% | Activity (HL-60 [18]): 12.2% | Activity (HL-60 [19]): 53.35% | inhibition of growth at 10 µM [20]: 82% | Activity (HL-60 [21]): 37.7% | Activity (HL-60 [22]): 29.7% | Activity (HL-60 [23]): 25.6% | Activity (HL-60 [24]): 50.55% | Activity (HL-60 [25]): 23.4% | Activity (HL-60 [26]): 61.45% | Activity (HL-60 [27]): 1.65% | inhibition of growth at 10 µM [28]: 82% | inhibition of growth at 10 µM [29]: 68% | Activity (HL-60 [30]): 38.9% | Activity (HL-60 [31]): 19.5% | Activity (HL-60 [32]): inactive
